Read-outs that look alike come from different tables or passages of the source.
Assays:
[1] = Safety exploration in MIA PaCa-2 xenograft model; format: in vivo; settings: MIA PaCa-2 xenograft mice, 400 mg/kg, po, QD, 22 days
Experimental: 7. Safety Exploration in MIA PaCa-2 xenograft Model
. Mice were monitored daily and caliper measurements began when tumors became visible. Tumor volume was calculated by measuring two perpendicular diameters using the following formula: (L*W^2)/2 in which L and W refer to the length and width tumor diameter, respectively. After mice were grouped to study the efficacy, the remaining mice (n=6) were used to explore the safety. The mice were treated with 400 mg/kg compound 1-2 (po, QD) for 22 days, and mice body weight was measured twice a week during treatment. […]

[2] = Dog pharmacokinetic study; format: in vivo, beagle dog; settings: for CL / VSS / AUC0-24 h / Cmax / Oral BA (F %) / clearance / Vd / AUC(0-t) / bioavailability: beagle dog; for CL / VSS / clearance / Vd: 1 mg/kg, iv; for AUC0-24 h / Cmax / Oral BA (F %) / AUC(0-t) / bioavailability: 10 mg/kg, po; for Vd: read-out: VSS; for AUC(0-t): read-out: AUC0-24 h; for bioavailability: read-out: Oral BA (F %)
Experimental: 4. Dog Pharmacokinetic Study
The purpose of this study was to evaluate the pharmacokinetic properties of compounds in beagle dog following single dose administration. The day before administration, dogs were fasted overnight and free access to water. Four beagle dogs were needed for each compound and the four dogs were divided into two groups (one male (♂) and one female (♀) in each group). Dogs in group A were treated with a single 1 mg/kg dose of compound (iv). Dogs in group B were treated with a single 10 mg/kg dose of compound (po). For dogs in group A, blood samples were collected at pre-dose, and at the time point of 0.083, 0.25, 0.5, 1, 2, 4, 6, 8 and 24 h. For dogs in group B, blood samples were collected at pre-dose, and at the time point of 0.25, 0.5, 1, 2, 4, 6, 8 and 24 h post-dose. Blood samples were placed on ice until centrifugation to obtain plasma samples. The plasma samples were stored at −80° C. until analysis. The concentration of compound in plasma samples were determined using a LC-MS/MS method.

[3] = tested on: NCI-H358 cells expressing KRAS G12C; experiment: Phospho-ERK1/2(THR202/TYR204) HTRF assay; format: cell-based; settings: 2 hours incubation, read-out: p-ERK IC50
Experimental: NCI-H358 cells expressing KRAS G12C were cultured in RPMI 1640 medium (Gibco) containing 10% fetal bovine serum (Gibco). The NCI-H358 cells in culture medium were seeded in 96-well plates at a concentration of 40,000 cells/well and then put in a 37° C./5% CO2 cell incubator to incubate overnight. The next day, culture medium was removed and the compound diluted in assay medium (RPMI 1640, 0.1% FBS) was added in each well. After 2 hours incubation in a 37° C./5% CO2 cell incubator, the assay medium in 96-well plates was removed, then 50 μL of 1× blocking reagent-supplemented lysis buffer (Cisbio) was added and the plates were incubated at 25° C. for 45 min with shaking. 10 μL of cell lysates from the 96-well plates were transferred to a 384-well plate (Greiner) containing 2.5 μL/well HTRF® pre-mixed antibodies (Cisbio 64AERPEH). Incubate 4 hours at 25° C. and then read HTRF signals on Tecan Spark multimode microplate reader. The data were analyzed using a 4-parameter logistic model to calculate IC50 values.

[4] = tested on: NCI-H1373 cells; experiment: Efficacy in NCI-H1373 xenograft model; format: in vivo, BALB/c nude mice
Experimental: 6. The Efficacy in NCI-H1373 Xenograft Model
NCI-H1373 cells (5.0E+06 cells) were injected subcutaneously into the right flank of female BALB/c nude mice (6-8 weeks) in a mixture with PBS and Matrigel (Corning) (PBS/Matrigel=1:1 (v/v)). Mice were monitored daily and caliper measurements began when tumors became visible. Tumor volume was calculated by measuring two perpendicular diameters using the formula: (L*W^2)/2 in which L and W refer to the length and width tumor diameter, respectively. When the average tumor volume reached 150-200 mm^3, mice were grouped randomly (n=6/group) and treated with compounds. Tumor volume and mice weight was measured twice a week during treatment (˜ 3 weeks). […] The results are in the following Table 13 and FIG. 8: […]

[5] = Cynomolgus monkey pharmacokinetic study; format: in vivo; settings: for CL / VSS / AUC0-24 h / Cmax / Oral BA (F %): Cynomolgus monkey; for CL / VSS: 1 mg/kg, iv; for AUC0-24 h / Cmax / Oral BA (F %): 3 mg/kg, po
Experimental: 5. Cynomolgus Monkey Pharmacokinetic Study
The purpose of this study was to evaluate the pharmacokinetic properties of compounds in Cynomolgus monkey following single dose administration. The day before administration, monkeys were fasted overnight and free access to water. Four monkeys are needed for each compound and the four monkeys were divided into two groups (one male(♂) and one female (♀) in each group), group A and group B. Monkeys in group A were treated with a single 1 mg/kg dose of compound (iv). Monkeys in group B were treated with a single 3 mg/kg dose of compound (po). For monkeys in group A, blood samples were collected at pre-dose, and at the time point of 0.083, 0.25, 0.5, 1, 2, 4, 6, 8 and 24 h. For monkeys in group B, blood samples were collected at pre-dose, and at the time point of 0.25, 0.5, 1, 2, 4, 6, 8 and 24 h post-dose. Blood samples were placed on ice until centrifugation to obtain plasma samples. The plasma samples were stored at −80° C. until analysis. The concentration of compound in plasma samples were determined using a LC-MS/MS method.

[6] = tested on: HIS-KRAS (G12C); format: biochemical; settings: read-out: SOS1 catalyzed nucleotide exchange IC50
[7] = Mouse pharmacokinetic study; format: in vivo, Balb/c mouse; settings: plasma, Balb/c mouse (female); for clearance / Vd: 3 mg/kg, iv; for Vd: read-out: Vss; for Cmax / AUC(0-t) / bioavailability: 10 mg/kg, po; for AUC(0-t): read-out: AUC0-24 h; for bioavailability: read-out: Oral BA (F %)
Experimental: 3. Mouse Pharmacokinetic Study
The purpose of this study was to evaluate the pharmacokinetic properties of compounds in Balb/c mouse (♀) following single dose administration. The day before administration, mice were fasted overnight and free access to water. Six mice were needed for each compound and the six mice were divided into two groups (n=3/group), group A and group B. Mice in group A were treated with a single 3 mg/kg dose of compound (iv). Mice in group B were treated with a single 10 mg/kg dose of compound (po). For each mouse in group A, blood samples were collected at pre-dose, and at the time point of 0.083, 0.25, 0.5, 1, 2, 4, 6, 8 and 24 h post-dose. For each mouse in group B, blood samples were collected at pre-dose, and at the time point of 0.25, 0.5, 1, 2, 3, 4, 6, 8 and 24 h post-dose. Blood samples were placed on ice until centrifugation to obtain plasma samples. The plasma samples were stored at −80° C. until analysis. The concentration of compound in plasma samples were determined using a LC-MS/MS method.

SMILES: C=CC(=O)N1CCN(c2c(C#N)c(=O)n(-c3c(C)ccnc3C(C)C)c3nc(-c4c(N)c(F)c(F)c(F)c4F)c(Cl)cc23)CC1 (atropisomer, axis not shown; (M)) [Compound 1-2, (M)-4-(4-acryloylpiperazin-1-yl)-7-(2-amino-3,4,5,6-tetrafluorophenyl)-6-chloro-1-(2-isopropyl-4-methylpyridin-3-yl)-2-oxo-1,2-dihydro-1,8-naphthyridine-3-carbonitrile]
- Safety (mice body weight, FIG. 9) [1]: good safety
- Pharmacokinetic properties (in words) ([2]; beagle dog model, compared with Amgen 6 and 6.3): excellent pharmacokinetic properties
- CL ([2]; female): 18.1 mL/min/kg
- VSS ([2]; female): 1.1 L/kg
- AUC0-24 h ([2]; female): 5953 ng·h/mL
- Cmax ([2]; female): 2980 ng/mL
- Oral BA (F %) ([2]; female): 65.1%
- CL ([2]; male): 15.9 mL/min/kg
- VSS ([2]; male): 0.9 L/kg
- AUC0-24 h ([2]; male): 6724 ng·h/mL
- Cmax ([2]; male): 3420 ng/mL
- Oral BA (F %) ([2]; male): 64.3%
- IC50 [3]: 10.2 nM
- TGI % ([4]; 10 mg/kg, QD, Day 21): 103%
- Tumor volume at the end (Day 21) ([4]; 10 mg/kg, QD, start volume 193 mm^3): 144 mm^3
- Efficacy in vivo (in words) ([4]; Table 13 and FIG. 8): excellent efficacy in vivo
- CL ([5]; female): 7.19 mL/min/kg
- VSS ([5]; female): 0.86 L/kg
- AUC0-24 h ([5]; female): 6854 ng·h/mL
- Cmax ([5]; female): 2680 ng/mL
- Oral BA (F %) ([5]; female): 98.9%
- CL ([5]; male): 5.25 mL/min/kg
- VSS ([5]; male): 0.61 L/kg
- AUC0-24 h ([5]; male): 7938 ng·h/mL
- Cmax ([5]; male): 2030 ng/mL
- Oral BA (F %) ([5]; male): 83.5%
- Pharmacokinetic properties (in words) ([5]; monkey model): excellent pharmacokinetic properties

SMILES: C=CC(=O)N1CCN(c2c(C#N)c(=O)n(-c3c(C)ccnc3C(C)C)c3nc(-c4c(N)c(F)c(F)c(F)c4F)c(Cl)cc23)CC1 (atropisomer, axis not shown; (P)) [Compound 1-1, (P)-4-(4-acryloylpiperazin-1-yl)-7-(2-amino-3,4,5,6-tetrafluorophenyl)-6-chloro-1-(2-isopropyl-4-methylpyridin-3-yl)-2-oxo-1,2-dihydro-1,8-naphthyridine-3-carbonitrile]
- IC50 [3]: 176 nM
- IC50 [6]: 14.1 nM

SMILES: C=CC(=O)N1CCN(c2c(C#N)c(=O)n(-c3c(C)ccnc3C(C)C)c3nc(-c4ccccc4F)c(Cl)cc23)CC1 [Amgen 6, 4-(4-acryloylpiperazin-1-yl)-6-chloro-7-(2-fluorophenyl)-1-(2-isopropyl-4-methylpyridin-3-yl)-2-oxo-1,2-dihydro-1,8-naphthyridine-3-carbonitrile]
- clearance ([2]; plasma, female): 15.5 mL/min/kg
- Vd ([2]; plasma, female): 0.543 L/kg
- AUC(0-t) ([2]; plasma, female): 1330 ng·h/mL
- Cmax ([2]; plasma, female, read-out: Cmax): 2580 ng/mL
- bioavailability ([2]; plasma, female): 12.4%
- clearance ([2]; plasma, male): 11.8 mL/min/kg
- Vd ([2]; plasma, male): 0.412 L/kg
- AUC(0-t) ([2]; plasma, male): 2940 ng·h/mL
- Cmax ([2]; plasma, male, read-out: Cmax): 3690 ng/mL
- bioavailability ([2]; plasma, male): 20.9%
- IC50 ([3]; Homo sapiens): 29.9 nM
- clearance [7]: 72 mL/min/kg
- Vd [7]: 2.6 L/kg
- Cmax [7]: 901 ng/mL
- AUC(0-t) [7]: 1030 ng·h/mL
- bioavailability [7]: 44%

SMILES: C=CC(=O)N1CCN(c2c(C#N)c(=O)n(-c3c(C(C)C)ncnc3C(C)C)c3nc(-c4c(N)cccc4F)c(Cl)cc23)CC1 [Amgen 6.3, 4-(4-acryloylpiperazin-1-yl)-7-(2-amino-6-fluorophenyl)-6-chloro-1-(4,6-diisopropylpyrimidin-5-yl)-2-oxo-1,2-dihydro-1,8-naphthyridine-3-carbonitrile]
- clearance ([2]; plasma, female): 329 mL/min/kg
- Vd ([2]; plasma, female): 3.1 L/kg
- clearance ([2]; plasma, male): 239 mL/min/kg
- Vd ([2]; plasma, male): 2.3 L/kg
- AUC(0-t) ([2]; plasma, male): 5.1 ng·h/mL
- Cmax ([2]; plasma, male, read-out: Cmax): 8 ng/mL
- bioavailability ([2]; plasma, male): 0.7%
- IC50 ([3]; Homo sapiens): 20.1 nM
- clearance [7]: 32 mL/min/kg
- Vd [7]: 1.4 L/kg
- Cmax [7]: 1590 ng/mL
- AUC(0-t) [7]: 1660 ng·h/mL
- bioavailability [7]: 32%
- IC50 ([6]; GDP-loaded HIS-KRAS (G12C), 1 hour pre-incubation with compound, TR-FRET): 2.77 nM
